# US20240415920A1, “PEPTIDE HAVING ACTIVITY OF PREVENTING HAIR LOSS OR PROMOTING HAIR GROWTH, AND USE THEREOF” (CAREGEN CO., LTD., priority 2021, published 2024)
# How the values were obtained:
# Format in all cases: cell-based, human
# Ha3-II = assay: RT-PCR of Ha3-II expression in HHORSC; details: peptide 10 nM, 100 nM, 1 μM, 72 hours, FIG. 6
# Protocol: (§1) Using the peptide of the present invention consisting of the amino acid sequence of SEQ ID NO: 1 prepared according to Preparation Example above, it was confirmed whether it promotes the activity of outer root sheath cells, a type of cell that forms hair follicles.
# (§2) Specifically, HHORSC (human hair outer root sheath cell, Sciencell, USA) was seeded in a 6-well culture plate at 4×10^5 cells/well and then cultured in MSC complete medium (mesenchymal stem cell complete media) for 24 hours. Next, the medium was replaced with serum free MSC complete medium and cultured again for 24 hours. Then, the HHORSC was treated with the peptide of Preparation Example consisting of amino acid sequence of SEQ ID NO: 1 at concentrations of 10 nM, 100 nM, and 1 μM, respectively, and cultured at 37° C. for 72 hours. […] Then, CDNA was synthesized using a cDNA synthesis kit (enzynomics, Korea) by quantification using nano drop, and PCR was performed using primers for Ha3-II, Keratin 5, Keratin 14, and Keratin 19 (the base sequences of each primer are shown in Table 3 below) and PCR premix (enzynomics, Korea). Electrophoresis was performed on a 1.5% agarose gel, and the mRNAs of Ha3-II, Keratin 5, Keratin 14, and Keratin 19 were detected using a band analysis system (Bio-Rad gel image system).
# HHFDPC = assay: Proliferation of dermal papilla cells (MTT, absorbance at 540 nm); details: 72 hours, FIG. 1
# Protocol: While culturing human hair follicle dermal dermal papilla cells (HHFDPC), the absorbance was measured after treatment with the peptide of the present invention to confirm whether there was an effect of promoting the proliferation of the HHFDPC dermal papilla cells.
# Specifically, HHFDPC (Sciencell, USA) was seeded at 4λ10^3 cells/well in a 96-well culture plate, cultured in MSC complete medium stem (mesenchymal cell complete media, Sciencell, USA) for 24 hours, and then the medium was replaced with serum free MSC complete medium and cultured for another 24 hours. Then, the HHFDPC was treated with the peptide from Preparation Example consisting of amino acid sequence of SEQ ID NO: 1 at concentrations of 10 nM, 100 nM, and 1 μM, respectively, and cultured at 37° C. for 72 hours. As a positive control, minoxidil was treated at a concentration of 1 μM, and as a negative control, HHFDPC without any treatment was used. Then, 10 μl of 5 mg/mL MTT solution was added and cultured in a 37° C. CO2 incubator for 4 hours to stain the cells. After removing the medium, the cells were treated with 100 μl of DMSO and shaken for 10 minutes, and the number of HHFDPC cells was confirmed by measuring absorbance at a wavelength of 540 nm using a spectrophotometer.
# MSX2 = assay: RT-PCR of MSX2 expression in HHGMC; details: peptide 10 nM, 100 nM, 1 μM, 72 hours, FIG. 7
# Protocol: as §1, with “promoted the expression of transcription factors related to” for “promotes”, “germinal matrix” for “outer root sheath”, “hair.” for “hair follicles.”
# Specifically, HHGMC (human hair germinal matrix cell, Sciencell, USA) was seeded in a 6-well culture plate at 4×10^5 cells/well and then cultured in MSC complete medium (mesenchymal stem cell complete media) for 24 hours. Next, the medium was replaced with serum free MSC complete medium and cultured again for 24 hours. Then, the HHGMC was treated with the peptide of SEQ ID NO: 1 prepared in the Preparation Example at concentrations of 10 nM, 100 nM, and 1 μM, respectively, and cultured at 37° C. for 72 hours. As a positive control, EGF was treated at a concentration of 50 nM, and as a negative control, HHGMC without any treatment was used. […] Next, cDNA was synthesized using a cDNA synthesis kit (enzynomics, Korea) by quantification using nano drop, and PCR was performed using primers for MSX2 consisting of base sequences according to Table 4 below and PCR premix (enzynomics, Korea). Electrophoresis was performed on a 1.5% agarose gel, and MSX2 mRNA was detected using a band analysis system (Bio-Rad gel image system).
# β-catenin = assay: Western blotting of β-catenin moved into the nucleus of HHFDPC; details: peptide 10 nM, 100 nM, 1 μM, 24 hours, FIG. 3
# Protocol: In addition, in addition to p-AKT and p-ERK, in order to confirm the activation of β-catenin, which is known to affect cell proliferation and differentiation, whether β-catenin moved into the nucleus was confirmed through Western blotting. Specifically, the HHFDPC as in [Experiment Example 1-1] was seeded in a 6-well culture plate at an amount of 4λ10^5 cells/well, cultured in MSC complete medium (mesenchymal stem cell complete media) for 24 hours. Next, the medium was replaced with serum free MSC complete medium and cultured again for 24 hours. Then, the HHFDPC was treated with the peptide of SEQ ID NO: 1 prepared in the Preparation Example at concentrations of 10 nM, 100 nM, and 1 μM, respectively, and cultured at 37° C. for 24 hours. As a positive control, minoxidil was treated at a concentration of 1 μM, and as a negative control, HHFDPC without any treatment was used. After washing with PBS, proteins in the nucleus were isolated using a nuclear protein extraction kit (Thermo scientific, USA). After electrophoresis using a 10% SDS-PAGE gel, it was transferred to a PVDF membrane and blocked using 5% skim milk at room temperature for 30 minutes. […] After washing again with 0.1% PBS-T (0.1% Tween-20 in PBS) three times for 15 minutes each, β-catenin was detected by treatment with ECL solution (GE Healthcare, USA).
# LEF-1 = assay: RT-PCR of LEF-1 expression in HHFDPC; details: peptide 10 nM, 100 nM, 1 μM, 24 hours, FIG. 4
# Protocol: (§3) Furthermore, in order to determine whether the β-catenin moves to the nucleus and is s activated to affect cell proliferation and differentiation, whether the expression of LEF-1 and cyclin D1 (cyclin D1), which act as downstream factors, increases with β-catenin activation was confirmed through RT-PCR. Specifically, in the same manner as the previous Western blotting experiment, HHFDPC cells were cultured, treated with the peptides of the Preparation Example of the present invention at concentrations of 10 nM, 100 nM, and 1 μM, respectively, and cultured at 37° C. for 24 hours. After washing the cells with PBS, RNA was isolated by treating them with 300 […] of easy blue (intron, Korea). Then, cDNA was synthesized using a cDNA synthesis kit (enzynomics, Korea) by quantifying it with nano drop, and PCR was performed using primers for LEF-1 and cyclin D1 (base sequences of the primers are listed in Table 2) and PCR premix (enzynomics, Korea). Electrophoresis was performed on a 1.5% agarose gel, and then the mRNA of LEF-1 and cyclin D1 was detected using a band analysis system (Bio-Rad gel image system).
# Keratin 5 = assay: RT-PCR of Keratin 5 expression in HHORSC; details: peptide 10 nM, 100 nM, 1 μM, 72 hours, FIG. 6
# Protocol: as §1, §2
# DKK-1 protein = assay: Western blotting of DKK-1 protein in DHT-treated HHFDPC; details: HHFDPC with DHT 100 nM, peptide 10 nM, 1 μM, 24 hours, FIG. 5
# Protocol: DKK-1 protein (dickkopf-related protein 1) is a hair loss-related protein known to be highly expressed in individuals with hair loss, especially male pattern hair loss, and its expression is known to be promoted by hormones such as DHT (Dihydrotestosterone). Accordingly, the expression of DKK-1 protein was induced by treating HHFDPC cells with DHT together with the peptide according to the Preparation Example of the present invention, and then the expression level of DKK-1 was measured through Western blotting to determine whether there was an effect of suppressing the expression of DKK-1 protein.
# Specifically, HHFDPC as in [Experiment Example 1-1] was seeded in a 6-well culture plate at 4×10^5 cells/well and then cultured in MSC complete medium (mesenchymal stem cell complete media) for 24 hours. Next, the medium was replaced with serum free MSC complete medium and cultured again for 24 hours. In addition, the HHFDPC was treated with the peptide of SEQ ID NO: 1 prepared in Preparation Example at concentrations of 10 nM, 100 nM, and 1 μM, respectively, and at this time, DHT, an expression inducer of DKK-1 protein, was simultaneously treated at a concentration of 100 nM and then cultured at 37° C. for 24 hours. […] After washing again with 0.1% PBS-T (0.1% Tween-20 in PBS) three times for 15 minutes each, DKK-1 protein was detected by treatment with ECL solution (GE Healthcare, USA).
# Keratin 19 = assay: RT-PCR of Keratin 19 expression in HHORSC; details: peptide 10 nM, 100 nM, 1 μM, 72 hours, FIG. 6
# Protocol: as §1, §2
# cyclin D1 = assay: RT-PCR of cyclin D1 expression in HHFDPC; details: peptide 10 nM, 100 nM, 1 μM, 24 hours, FIG. 4
# Protocol: as §3
# Keratin 14 = assay: RT-PCR of Keratin 14 expression in HHORSC; details: peptide 10 nM, 100 nM, 1 μM, 72 hours, FIG. 6
# Protocol: as §1, §2
# p-AKT = assay: Western blotting of phosphorylated AKT in HHFDPC; details: peptide 10 nM, 100 nM, 1 μM, 24 hours, FIG. 2
# Text: (§4) In the HHFDPC treated with the peptide of the present invention, changes in related factors that affect cell proliferation or differentiation were confirmed to determine whether the peptide of the present invention could promote proliferation and differentiation of HHFDPC by increasing them.
# (§5) First, phosphorylated forms of AKT and ERK, which act as signaling molecules related to the proliferation of HHFDPC, were confirmed through Western blotting. Specifically, HHFDPC as in [Experiment Example 1-1] above was seeded at 4λ10^5 cells/well in a 6-well culture plate, cultured in MSC complete medium (mesenchymal stem cell complete media) for 24 hours, and then the medium was replaced with serum free MSC complete medium and cultured for another 24 hours. Then, the HHFDPC was treated with the peptide of SEQ ID NO: 1 prepared in the Preparation Example at concentrations of 10 nM, 100 nM, and 1 μM, respectively, and cultured at 37° C. for 24 hours. As a positive control, minoxidil was treated at a concentration of 1 μM, and as a negative control, HHFDPC without any treatment was used. Then, Western blotting was performed to detect phosphorylated AKT and phosphorylated ERK. […] After washing again with 0.1% PBS-T (0.1% Tween-20 in PBS) three times for 15 minutes each, p-AKT and p-ERK were detected by treatment with ECL solution (GE Healthcare, USA).
# p-ERK = assay: Western blotting of phosphorylated ERK in HHFDPC; details: peptide 10 nM, 100 nM, 1 μM, 24 hours, FIG. 2
# Text: as §4, §5
sequence,measurement,setting,value
GCGLFVAAC [peptide of the present invention],Ha3-II mRNA amount compared to the control group without treatment,Ha3-II,the amount of mRNA increased further
same,absorbance (cell proliferation) compared to the untreated control group,"HHFDPC; peptide 10 nM, 100 nM, 1 μM",the absorbance was measured to be higher
same,proliferation promotion effect compared to the positive control group (minoxidil 1 μM),HHFDPC; peptide 1 μM,showed a better proliferation promotion effect than the positive control group
same,MSX2 mRNA amount compared to the untreated control group,MSX2,the amount of mRNA increased further
same,β-catenin migration to the nucleus compared to the control group not treated with the peptide,"β-catenin; HHFDPC nuclear protein, Western blotting",migration due to activation of β-catenin increased
same,concentration dependence of β-catenin activation,β-catenin; HHFDPC,further promoted depending on the concentration
same,LEF-1 mRNA amount compared to the control group without any treatment,LEF-1,the amount of mRNA increased further
same,Keratin 5 mRNA amount compared to the control group without treatment,Keratin 5,the amount of mRNA increased further
same,concentration dependence of the DKK-1 expression level,DKK-1 protein,decreased depending on the concentration
same,amount of DKK-1 protein compared to the negative control group (DHT only),DKK-1 protein; Western blotting,found to be reduced
same,Keratin 19 mRNA amount compared to the control group without treatment,Keratin 19,the amount of mRNA increased further
same,cyclin D1 mRNA amount compared to the control group without any treatment,cyclin D1,the amount of mRNA increased further
same,Keratin 14 mRNA amount compared to the control group without treatment,Keratin 14,the amount of mRNA increased further
same,phosphorylation of AKT (p-AKT) compared to the control group not treated with the peptide,p-AKT,phosphorylation was found to be increased
same,phosphorylation of ERK (p-ERK) compared to the control group not treated with the peptide,p-ERK,phosphorylation was found to be increased
